Results as given in PMC12365113 (IBRO Neuroscience Reports, 2025).
Marks after values point to notes of the source that are not given here.

Key:
Aβ42 = Aβ42 (Homo sapiens, UniProt P05067); test: ThT assay of inhibition of Aβ aggregation; assay type: biochemical
BSA protein glycation = BSA protein glycation (Bos taurus, UniProt P02769); test: Anti-glycation assay; assay type: biochemical, Bovine; conditions: BSA + dextrose, 9 days at 37 °C, mean ± SD of triplicate
Chain of BSA protein glycation (P02769 25-607): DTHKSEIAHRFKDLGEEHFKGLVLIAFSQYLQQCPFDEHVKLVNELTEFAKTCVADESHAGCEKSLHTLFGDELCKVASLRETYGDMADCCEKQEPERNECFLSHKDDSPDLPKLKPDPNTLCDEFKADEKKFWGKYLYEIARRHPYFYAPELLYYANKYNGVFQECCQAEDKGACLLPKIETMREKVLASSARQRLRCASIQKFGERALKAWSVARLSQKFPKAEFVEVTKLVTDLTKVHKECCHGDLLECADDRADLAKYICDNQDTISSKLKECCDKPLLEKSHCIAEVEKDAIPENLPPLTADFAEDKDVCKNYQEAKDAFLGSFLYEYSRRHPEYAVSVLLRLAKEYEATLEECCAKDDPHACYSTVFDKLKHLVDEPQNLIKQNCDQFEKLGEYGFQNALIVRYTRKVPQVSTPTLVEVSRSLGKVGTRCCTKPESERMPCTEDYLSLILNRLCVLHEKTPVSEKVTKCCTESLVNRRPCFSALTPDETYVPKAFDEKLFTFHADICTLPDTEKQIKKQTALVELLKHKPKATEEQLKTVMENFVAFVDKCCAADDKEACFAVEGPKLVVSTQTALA

Chain of Aβ42 (P05067 672-713): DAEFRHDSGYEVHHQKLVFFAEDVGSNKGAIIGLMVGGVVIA

| SMILES | IC50 (Aβ42) | Half-maximal inhibitory (IC50) values Protein glycation (BSA protein glycation) |
| --- | --- | --- |
| O=S1(=O)OC(c2ccc(O)cc2)(c2ccc(O)cc2)c2ccccc21 [Phenol Red] | 94.7 µM |  |
| N=C(N)NN [Aminoguanidine] |  | 15.27 ± 0.37^b μg/mL |
